From publication PMC6555543 (PLoS Pathogens, 2019) come the findings set out here.

As a reminder, the Kd is the concentration at which binding is half-saturated. Read a high Kd as lower affinity.

SMILES strings stand for the structures.

The target of experiment [1] is T1, RVFV CBD (CBD13, RVFV L protein cap-binding domain) (Rift Valley fever virus, UniProt A2SZS3). As to conditions: 1-10 mM ligand, 15 μM protein, 20 mM Na-phosphate pH 6.5, 100 mM NaCl.
Experiment [2] addresses T1, RVFV CBD (CBD13, RVFV L protein cap-binding domain). Nature of the experiment: biochemical.
The target is the same in experiment [3]. The settings on record: 25°C, 50 mM Na-phosphate pH 6.5, 150 mM NaCl, 10% glycerol; 9.8 mM GTP in syringe, 194 μM protein.

T1 sequence (A2SZS3 1706-1822 limits assumed): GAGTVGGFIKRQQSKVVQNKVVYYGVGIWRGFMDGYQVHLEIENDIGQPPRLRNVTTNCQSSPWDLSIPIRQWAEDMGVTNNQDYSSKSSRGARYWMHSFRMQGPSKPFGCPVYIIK

Regarding `Nc1ncnc2c1ncn2[C@@H]1O[C@H](COP(=O)(O)OP(=O)(O)OP(=O)(O)O)[C@@H](O)[C@H]1O` [ATP], the ΔTm result in experiment [1] is “no or even negative effects on protein stability after addition of GTP or ATP”.
Regarding `C[n+]1cn([C@@H]2O[C@H](COP(=O)(O)OP(=O)(O)OP(=O)(O)O)[C@@H](O)[C@H]2O)c2nc(N)[nH]c(=O)c21` [m^7GTP], the dissociation constant (Kd) in experiment [2] is approximately 737 µM.
Turning to `Nc1nc2c(ncn2[C@@H]2O[C@H](COP(=O)(O)OP(=O)(O)OP(=O)(O)O)[C@@H](O)[C@H]2O)c(=O)[nH]1` [GTP], the KD result in experiment [3] is “For GTP the KD is too high to be determined by ITC”.
